Columns and labels:
PTP1B [1] = assay: Mutational analysis of the inhibitor binding site (fractional change in inhibition); format: biochemical, H. sapiens; details: FIG. 24C
Source text: FIG. 24B illustrates exemplary disruptive mutations introduced at each site. Mutations were designed to alter the size and/or polarity of targeted residues. […] Error bars denote SE (propagated from n≥9 independent measurements of each V in Eq. 1).

PTP1B [2] = target: T1, PTP1B (Homo sapiens, UniProt P18031); assay: PTP1B-catalyzed hydrolysis of pNPP in the presence of inhibitor; format: biochemical, H. sapiens
T1 construct: made in house; host or cells: E. coli BL21 (B121 [sic])
T1 sequence (P18031 1-435): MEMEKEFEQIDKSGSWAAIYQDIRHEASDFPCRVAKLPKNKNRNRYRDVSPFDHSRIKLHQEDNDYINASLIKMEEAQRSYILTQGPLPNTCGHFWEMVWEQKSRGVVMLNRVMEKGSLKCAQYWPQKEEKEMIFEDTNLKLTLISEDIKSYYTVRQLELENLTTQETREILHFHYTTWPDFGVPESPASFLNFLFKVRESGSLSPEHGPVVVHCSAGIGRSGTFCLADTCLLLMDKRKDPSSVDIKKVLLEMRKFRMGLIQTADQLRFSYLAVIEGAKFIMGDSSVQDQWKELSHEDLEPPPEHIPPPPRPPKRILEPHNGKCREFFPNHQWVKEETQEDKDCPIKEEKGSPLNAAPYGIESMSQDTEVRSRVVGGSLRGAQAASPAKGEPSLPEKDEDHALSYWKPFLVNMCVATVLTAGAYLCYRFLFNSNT
Source text: FIG. 14A illustrates Abietic acid. […] FIG. 14C illustrates Abietic acid (green) docked in the allosteric site of PTP1B. […] Inset highlights active site in black.
FIG. 16A-B illustrates exemplary terpenoids showing differences in stereochemistry, shape, size, and chemical functionality. FIG. 16A illustrates clockwise from abietic acid (1), neoabietic acid (2), levopimaric acid (3), dihydroabietic acid (4). […] No inhibitor. Error bars=standard error (n>5).
Lines show a fit to a model for mixed inhibition. FIG. 22D an exemplary illustration of this model, where the inhibitor (I) binds to the enzyme (E) and enzyme-substrate complex (ES) with different affinities.
Improved inhibitors. We assessed the ability of minor structural perturbations of abietadiene derivatives to yield improved inhibitors by comparing four structurally related (and commercially available) molecules (FIG. 16): abietic, neoabietic, levopimaric, and dihydroabietic acid.
Statistical Analysis of Kinetic Models. We evaluated four kinetic models of inhibition as described previously (19). In brief, we used an F-test to compare a two-parameter mixed model to several single-parameter models, and we used Akaike's Information Criterion (AIC, or Ai) to compare the single-parameter models to one another. […] Exemplary Estimation of IC50. […]

PTP1B [3] = target: T1, PTP1B; assay: Binding-induced quenching of tryptophan fluorescence of PTP1B; parameters: species or system H. sapiens; details: FIG. 17C
Source text: FIG. 17A N-HSQC spectra of PTP1B (red) and PTP1B bound to abietic acid (blue). Inset: Crystal structure of PTP1B. […] Error bars represent standard error (n>5).
Binding-induced changes in the tryptophan fluorescence of PTP1B. A screen in which inhibition of PTP1B is linked to changes in tryptophan fluorescence (FIG. 21D) will enable rapid screening of moderately sized libraries (10^3-10^4)^27 in microtiter plates. Our use of binding-induced changes in tryptophan fluorescence is described in 5.6.

| effect of five mutations distributed across PTP1B on inhibition (PTP1B [1]) | Ki (PTP1B [2]; commercially available abietane-type acids, FIG. 16, read-out: K, (inhibition of PTP1B)) [µM] | concentration detected by change in tryptophan fluorescence of PTP1B (PTP1B [3]) [µM] | SMILES | inhibition relative to abietic acid (PTP1B [2]) |
| --- | --- | --- | --- | --- |
| negligible effect |  |  | CCc1oc2cc(S(=O)(=O)Nc3ccc(S(=O)(=O)Nc4nccs4)cc3)ccc2c1C(=O)c1cc(Br)c(O)c(Br)c1 [BBR, 3-(3,5-Dibromo-4-hydroxy-benzoyl)-2-ethyl-benzofuran-6-sulfonicacid-(4-(thiazol-2-ylsulfamyl)-phenyl)-amide] |  |
| reduced inhibition | 250 | 50 | CC(C)C1=CC2=CC[C@@H]3[C@](C)(CCC[C@@]3(C)C(=O)O)[C@H]2CC1 [abietic acid] |  |
|  |  |  | CC(C)C1C=C2CCC3C(C)(C(=O)O)CCCC3(C)C2CC1 (stereo not drawn) [dihydroabietic acid] | ten times more inhibitory than abietic acid |

| SMILES | effect of five mutations distributed across PTP1B on inhibition (PTP1B [1]) | Ki (PTP1B [2]; commercially available abietane-type acids, FIG. 16, read-out: K, (inhibition of PTP1B)) [µM] | concentration detected by change in tryptophan fluorescence of PTP1B (PTP1B [3]) [µM] | inhibition relative to abietic acid (PTP1B [2]) |
| --- | --- | --- | --- | --- |
| Cl.O=C(O)C(=O)Nc1sc2c(c1C(=O)O)CCNC2 [TCS401, 2-[(Carbox-ycarbonyl)amino]-4,5,6,7-tetrahydro-thieno[2,3-c]pyridine-3-carboxylic acid hydrochloride] | reduced inhibition |  |  |  |

— patent US12297234B2, “Genetically encoded system for constructing and detecting biologically active agents” (The Regents of the University of Colorado, priority 2018, dated 2025)
